According to US20250333405A1, “ANTAGONISTS OF GPR39 PROTEIN” (VASOCARDEA, INC., priority 2024, published 2025):

Target: T1, human GPR39 receptor (Homo sapiens, UniProt O43194)
T1 construct: PC3 Cells, Expressing the Endogenous Human GPR39 Receptor; endogenous in cells; host or cells: PC3 (human prostate adenocarcinoma) cells
T1 sequence (O43194 1-453): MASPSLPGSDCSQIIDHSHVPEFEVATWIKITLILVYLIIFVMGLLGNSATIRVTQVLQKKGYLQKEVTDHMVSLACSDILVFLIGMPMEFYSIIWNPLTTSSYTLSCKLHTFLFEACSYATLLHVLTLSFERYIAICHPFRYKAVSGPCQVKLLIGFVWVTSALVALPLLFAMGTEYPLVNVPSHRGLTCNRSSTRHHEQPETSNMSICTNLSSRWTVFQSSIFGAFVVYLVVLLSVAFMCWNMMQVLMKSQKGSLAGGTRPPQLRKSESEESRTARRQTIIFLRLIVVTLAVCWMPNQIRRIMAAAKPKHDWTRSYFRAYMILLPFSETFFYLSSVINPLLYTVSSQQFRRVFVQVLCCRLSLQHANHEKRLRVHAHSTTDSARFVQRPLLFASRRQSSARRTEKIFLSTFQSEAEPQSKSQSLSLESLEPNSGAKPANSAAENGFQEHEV
Assay: Intracellular calcium response (FLIPR, Calcium-6) in PC3 cells, antagonism of agonist C3 (TC-G 1008) at EC90
Format: cell-based
Conditions: functional pKi (-Log10Ki) by modified Cheng-Prusoff from IC50; PC3 cells endogenously expressing human GPR39; 30 μM ZnCl2; agonist C3 (TC-G 1008) at EC90 1.5 μM; read-out: fpKi activity
Method in brief: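 Calcium-6-loaded cells in HEPES buffer pH 7.4 were given compound with 30 μM final ZnCl2 (0.32% DMSO) for 10 min, then challenged with 1.5 μM C3. Baseline-subtracted peak fluorescence expressed as % inhibition of the C3 response; IC50 from four-parameter logistic fit, reported as binned fpKi.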

Ki	SMILES
> 6.31 µM	O=C(Nc1ccc(C(=O)N2CCS(=O)(=O)CC2)c(N2CCCC2=O)c1)C1CC1 [Example 123, N-[4-(1,1-dioxo-1,4-thiazinane-4-carbonyl)-3-(2-oxopyrrolidin-1-yl)phenyl]cyclopropanecarboxamide]
≤ 0.0501 µM	Cc1nnc(-c2ccc(C(=O)N3CCC(C(F)(F)F)CC3)c(-c3cccc(C(C)C)n3)c2)[nH]1 [Example 70, [2-(6-isopropyl-2-pyridyl)-4-(5-methyl-4H-1,2,4-triazol-3-yl)phenyl]-[4-(trifluoromethyl)-1-piperidyl]methanone]
0.0631 to 0.251 µM	CN1CCN(C(=O)c2ccc(NC(=O)C3CC3)cc2N2CCCC2)C(c2cccc(C#N)c2)C1 (racemic) [Example 107, N-[4-[2-(3-cyanophenyl)-4-methylpiperazine-1-carbonyl]-3-pyrrolidin-1-ylphenyl]cyclopropanecarboxamide]
≤ 0.0501 µM	O=C(Nc1ccc(C(=O)N2CCS(=O)(=O)CC2)c(-c2cccc(C(F)(F)F)n2)c1)C1CC1 [Example 37, N-[4-(1,1-dioxo-1,4-thiazinane-4-carbonyl)-3-[6-(trifluoromethyl)pyridin-2-yl]phenyl]cyclopropanecarboxamide]
≤ 0.0501 µM	Cc1cc(-c2ccc(C(=O)N3CCC(F)(F)CC3)c(-c3ccn(C(C)C)n3)c2)[nH]n1 [Example 86, (4,4-difluoro-1-piperidyl)-[2-(1-isopropylpyrazol-3-yl)-4-(5-methyl-1H-pyrazol-3-yl)phenyl]methanone]
≤ 0.0501 µM	Cc1nnc(-c2ccc(C(=O)N3CCC(C)CC3)c(-c3ccn(C(C)(C)C)n3)c2)[nH]1 [Example 64, [2-(1-tert-butylpyrazol-3-yl)-4-(5-methyl-4H-1,2,4-triazol-3-yl)phenyl]-(4-methyl-1-piperidyl)methanone]
≤ 0.0501 µM	Cc1nnc(-c2ccc(C(=O)N3CCC(F)(F)CC3)c(-c3nccc(C(F)(F)F)n3)c2)[nH]1 [Example 77, (4,4-difluoro-1-piperidyl)-[4-(5-methyl-4H-1,2,4-triazol-3-yl)-2-[4-(trifluoromethyl)pyrimidin-2-yl]phenyl]methanone]
≤ 0.0501 µM	Cc1nnc(-c2ccc(C(=O)N3CCN(C)CC3c3ccccc3)c(N3CCC(C(C)C)C3)c2)[nH]1 (single isomer, unassigned) [Example 125d, (4-methyl-2-phenylpiperazin-1-yl)-[4-(5-methyl-4H-1,2,4-triazol-3-yl)-2-(3-propan-2-ylpyrrolidin-1-yl)phenyl]methanone]
0.0631 to 0.251 µM	Cn1ccc(-c2cc(NC(=O)C3CC3)ccc2C(=O)N2CCC(F)(F)CC2)n1 [Example 22, N-[4-(4,4-difluoropiperidine-1-carbonyl)-3-(1-methylpyrazol-3-yl)phenyl]cyclopropanecarboxamide]
≤ 0.0501 µM	Cc1nnc(-c2ccc(C(=O)N3CCC(C(F)(F)F)CC3)c(-c3ccn(C(C)C)n3)c2)[nH]1 [Example 48, [4-(5-methyl-4H-1,2,4-triazol-3-yl)-2-(1-propan-2-ylpyrazol-3-yl)phenyl]-[4-(trifluoromethyl)piperidin-1-yl]methanone]
≤ 0.0501 µM	Cc1nnc(-c2ccc(C(=O)N3CCC(C(F)(F)F)CC3)c(-c3nc(C(F)(F)F)cs3)c2)[nH]1 [Example 72, [4-(5-methyl-4H-1,2,4-triazol-3-yl)-2-[4-(trifluoromethyl)-1,3-thiazol-2-yl]phenyl]-[4-(trifluoromethyl)piperidin-1-yl]methanone]
1.26 to 6.31 µM	CC(C)c1cc(-c2ccc(C(=O)N3CCC(F)(F)CC3)c(-c3ccn(C(C)C)n3)c2)[nH]n1 [Example 85, (4,4-difluoro-1-piperidyl)-[2-(1-isopropylpyrazol-3-yl)-4-(5-isopropyl-1H-pyrazol-3-yl)phenyl]methanone]
0.0631 to 0.251 µM	CCOC(=O)c1csc(-c2cc(C#N)ccc2C(=O)N2CCC(F)(F)CC2)n1 [Example 81, ethyl 2-[5-cyano-2-(4,4-difluoropiperidine-1-carbonyl)phenyl]thiazole-4-carboxylate]
≤ 0.0501 µM	Cc1nnc(-c2ccc(C(=O)N3CCN(C)CC3c3ccccc3)c(N3CCC(C(C)C)C3)c2)[nH]1 (single isomer, unassigned) [Example 125b, (4-methyl-2-phenylpiperazin-1-yl)-[4-(5-methyl-4H-1,2,4-triazol-3-yl)-2-(3-propan-2-ylpyrrolidin-1-yl)phenyl]methanone]
> 6.31 µM	CC1CN(C(=O)c2ccc(NC(=O)C3CC3)cc2N2CCCC2)CC(C)S1(=O)=O (stereo not shown) [Example 5, N-[4-(2,6-dimethyl-1,1-dioxo-1,4-thiazinane-4-carbonyl)-3-pyrrolidin-1-ylphenyl]cyclopropanecarboxamide]
0.316 to 1 µM	CC(C)n1ccc(-c2cc(NC(=O)C3CC3)ccc2C(=O)N2CCN(C)CC2c2ccccc2)n1 (racemic) [Example 30, N-[4-(4-methyl-2-phenylpiperazine-1-carbonyl)-3-(1-propan-2-ylpyrazol-3-yl)phenyl]cyclopropanecarboxamide]
≤ 0.0501 µM	Cc1nnc(-c2ccc(C(=O)N3CCC(C(F)(F)F)CC3)c(-n3ccc(C4CC4)n3)c2)[nH]1 [Example 121, [2-(3-cyclopropylpyrazol-1-yl)-4-(5-methyl-4H-1,2,4-triazol-3-yl)phenyl]-[4-(trifluoromethyl)piperidin-1-yl]methanone]
0.316 to 1 µM	Cc1nnc(-c2ccc(C(=O)N3CCN(C)CC3c3ccccc3)c(N3CCC(C(C)C)C3)c2)[nH]1 (single isomer, unassigned) [Example 125a, (4-methyl-2-phenylpiperazin-1-yl)-[4-(5-methyl-4H-1,2,4-triazol-3-yl)-2-(3-propan-2-ylpyrrolidin-1-yl)phenyl]methanone]
≤ 0.0501 µM	Cc1nnc(-c2ccc(C(=O)N3CCC(F)(F)CC3)c(-c3ccn(C(C)C)n3)c2)[nH]1 [Example 51, (4,4-difluoropiperidin-1-yl)-[4-(5-methyl-4H-1,2,4-triazol-3-yl)-2-(1-propan-2-ylpyrazol-3-yl)phenyl]methanone]
1.26 to 6.31 µM	CN1CCN(C(=O)c2cc(F)c(NC(=O)C3CC3)nc2N2CCCC2)C(c2ccccc2)C1 (stereo not shown) [Example 115, N-[3-fluoro-5-(4-methyl-2-phenylpiperazine-1-carbonyl)-6-pyrrolidin-1-ylpyridin-2-yl]cyclopropanecarboxamide]
> 6.31 µM	CN1CCN(C(=O)c2ccc(NC(=O)C3CC3)cc2N2CCCC2=O)C(c2ccccc2)C1 (stereo not shown) [Example 124, N-[4-(4-methyl-2-phenylpiperazine-1-carbonyl)-3-(2-oxopyrrolidin-1-yl)phenyl]cyclopropanecarboxamide]
1.26 to 6.31 µM	Cc1nnc(Nc2ccc(C(=O)N3CCN(C)CC3c3ccccc3)c(N3CCCC3)c2)s1 (stereo not shown) [Example 20, (4-methyl-2-phenylpiperazin-1-yl)-[4-[(5-methyl-1,3,4-thiadiazol-2-yl)amino]-2-pyrrolidin-1-ylphenyl]methanone]
